For data set [1], the system named is glioma cells. Description: propidium iodide exclusion and metabolic cell viability assays. It is filed as cell-based. Conditions: under conditions that block cell motility.
For data set [2], the target named is T1, inositol monophosphatase (IMP) (Homo sapiens, UniProt P29218).
T1 sequence (P29218 1-277): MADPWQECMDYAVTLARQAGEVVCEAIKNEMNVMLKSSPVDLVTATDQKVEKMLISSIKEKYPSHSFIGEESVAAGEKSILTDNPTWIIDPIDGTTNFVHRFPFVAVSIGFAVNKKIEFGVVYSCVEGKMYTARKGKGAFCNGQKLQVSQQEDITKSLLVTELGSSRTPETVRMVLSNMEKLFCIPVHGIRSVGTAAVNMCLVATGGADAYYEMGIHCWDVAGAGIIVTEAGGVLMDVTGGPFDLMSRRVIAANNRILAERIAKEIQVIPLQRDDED
Conditions: cited from earlier work.

Data set [3] has as its system U87 glioma cell spheroids. Description: U87 glioma spheroid invasion in collagen I matrix.
Protocol: U87 control spheroid after 96 hours expansion in type I collagen with 20 mM NaCl.
Time course of U87 spheroid invasion, in the presence of increasing concentrations of LiCl. Measurements were taken daily over a period of four days.
Time course of spheroid expansion with 20 mM LiCl washed out from U87 spheres at 24 hour intervals. Subsequent expansion was monitored microscopically.
To investigate the role of GSK-3 in glioma invasion, experiments were carried out to examine the effects of lithium chloride (LiCl), a known inhibitor of GSK-3, on the invasion of U87 glioma cell spheroids embedded in a collagen I matrix.
Data set [4] has as its system three additional glioma cell lines and two human glioblastoma biopsies (X12 and X14). Here is the method: Spheroids from 6 glioma cell lines were grown in the presence of LiCl (10 mM or 20 mM).
Cell lines and chemicals. The U87 and U87ΔEGFR cell lines were provided by Dr. Webster Cavenee (Ludwig Institute for Cancer Research, La Jolla, Calif.). The human glioblastoma biopsies, X12 and X14 (from Dr. C. David James, Mayo Clinic, Rochester, Minn.), were maintained as flank tumors in nude mice as described (5). All cells were grown in DMEM with 10% FBS and 1% penicillin-streptomycin.

SMILES strings stand for the structures.

For `O=C1NC(=O)C(c2ccccc2[N+](=O)[O-])=C1Nc1ccc(O)c(Cl)c1` [SB415286], the cytotoxicity entry in data set [1] is given as “Minimal cytotoxicity”.
`CC(Oc1ccc(O)cc1)(P(=O)(O)O)P(=O)(O)O` [L-690, 330]: the “potency as IMP inhibitor relative to lithium” value in data set [2] was 1000 fold. In addition, the effect on invasion entry in data set [3] (concentrations as high as 400 μM) was “no effect on invasion”.
On to `COc1ccc(CNC(=O)Nc2ncc([N+](=O)[O-])s2)cc1` [AR-A014418], for which, in data set [1], the cytotoxicity entry is listed as “Minimal cytotoxicity”. The “spheroid expansion as a percentage of control spheres” value in data set [4] (X12 cells, 96 hours) was “dose dependent decrease in spheroid expansion”; in data set [3] (U87 cells, 96 hours), “dose dependent decrease in spheroid expansion”. For the same compound, the “spheroid invasion in further glioma cell lines and biopsies” value in data set [4] (panel of glioma cell lines, X12 and X14) is “observed in the full panel of cell lines”. For the same compound, in data set [3] (U87 spheroids embedded in collagen I matrix), the “invasion of glioma spheroids” value is “dose-dependent blockade of invasion”. Further, the “reversibility of the invasion blockade” value in data set [3] (after removal of inhibitor, assay up to 96 hours) is “reversible”.

Values taken from patent US20100143500A1, “Methods and Compositions for Inhibiting GSK-3 In Glial Cell Related Disorders” (THE OHIO STATE UNIVERSITY RESEARCH FOUNDATION, priority 2006, published 2010).
